The values below come from paper PMC3525729 (Bioorganic & medicinal chemistry letters, 2012).

Changes are numbered by the printed parent chain.

In one data set the target is T1, rM2 (Rattus norvegicus, UniProt P10980).
T1 sequence (P10980 1-466): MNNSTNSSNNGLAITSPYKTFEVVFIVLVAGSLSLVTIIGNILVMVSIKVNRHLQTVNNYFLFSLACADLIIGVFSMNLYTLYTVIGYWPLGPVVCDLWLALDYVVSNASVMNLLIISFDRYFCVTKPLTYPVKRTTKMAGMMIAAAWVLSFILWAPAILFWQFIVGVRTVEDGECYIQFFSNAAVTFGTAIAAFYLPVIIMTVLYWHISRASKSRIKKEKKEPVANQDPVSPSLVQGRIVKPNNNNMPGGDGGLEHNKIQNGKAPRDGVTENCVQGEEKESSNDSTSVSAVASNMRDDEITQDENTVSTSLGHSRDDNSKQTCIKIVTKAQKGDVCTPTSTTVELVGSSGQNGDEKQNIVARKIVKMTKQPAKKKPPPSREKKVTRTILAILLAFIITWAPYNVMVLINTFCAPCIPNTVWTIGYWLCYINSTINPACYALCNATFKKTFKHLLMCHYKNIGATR
The data set is described as follows: CRC screened as antagonist in presence of ACh EC80, rM2. Format: cell-based. The settings on record: antagonist mode.

The target in another data set is T2, rM5 (Rattus norvegicus, UniProt P08911).
T2 sequence (P08911 1-531): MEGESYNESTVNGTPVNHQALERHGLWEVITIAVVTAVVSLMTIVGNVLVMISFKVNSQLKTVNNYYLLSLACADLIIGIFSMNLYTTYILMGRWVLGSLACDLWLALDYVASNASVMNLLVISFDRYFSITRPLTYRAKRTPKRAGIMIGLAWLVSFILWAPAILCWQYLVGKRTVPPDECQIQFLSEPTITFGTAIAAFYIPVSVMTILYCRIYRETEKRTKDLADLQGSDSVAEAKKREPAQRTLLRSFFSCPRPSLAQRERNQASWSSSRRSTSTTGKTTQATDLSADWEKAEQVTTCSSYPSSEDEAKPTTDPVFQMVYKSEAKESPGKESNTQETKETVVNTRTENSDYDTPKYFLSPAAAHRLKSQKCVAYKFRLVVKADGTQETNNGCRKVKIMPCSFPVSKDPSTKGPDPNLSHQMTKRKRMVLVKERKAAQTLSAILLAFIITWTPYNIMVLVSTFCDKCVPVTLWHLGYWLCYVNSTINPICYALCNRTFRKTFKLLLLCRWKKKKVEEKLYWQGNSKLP
The data set is described as follows: CRC screened in agonist mode, rM5. The format is cell-based.

In a further data set the target is T3, hM2 (Homo sapiens, UniProt P08172).
T3 sequence (P08172 1-466): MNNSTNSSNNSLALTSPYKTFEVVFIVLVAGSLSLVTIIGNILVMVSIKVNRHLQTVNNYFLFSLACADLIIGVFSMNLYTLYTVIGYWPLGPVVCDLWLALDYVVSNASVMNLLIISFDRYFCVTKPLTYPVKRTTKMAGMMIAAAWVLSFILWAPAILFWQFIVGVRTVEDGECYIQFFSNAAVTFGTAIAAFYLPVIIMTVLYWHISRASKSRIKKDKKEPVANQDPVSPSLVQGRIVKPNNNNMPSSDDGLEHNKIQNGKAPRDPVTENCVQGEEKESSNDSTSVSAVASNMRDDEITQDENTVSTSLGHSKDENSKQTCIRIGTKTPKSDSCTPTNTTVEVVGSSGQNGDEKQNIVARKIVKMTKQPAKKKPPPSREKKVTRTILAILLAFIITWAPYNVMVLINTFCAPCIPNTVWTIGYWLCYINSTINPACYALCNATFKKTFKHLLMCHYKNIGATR
Briefly: Human CRC screened as antagonist, hM2. The format is cell-based. The settings on record: ACh EC80.

A further data set has as its target T4, hM1 (Homo sapiens, UniProt P11229).
T4 sequence (P11229 1-460): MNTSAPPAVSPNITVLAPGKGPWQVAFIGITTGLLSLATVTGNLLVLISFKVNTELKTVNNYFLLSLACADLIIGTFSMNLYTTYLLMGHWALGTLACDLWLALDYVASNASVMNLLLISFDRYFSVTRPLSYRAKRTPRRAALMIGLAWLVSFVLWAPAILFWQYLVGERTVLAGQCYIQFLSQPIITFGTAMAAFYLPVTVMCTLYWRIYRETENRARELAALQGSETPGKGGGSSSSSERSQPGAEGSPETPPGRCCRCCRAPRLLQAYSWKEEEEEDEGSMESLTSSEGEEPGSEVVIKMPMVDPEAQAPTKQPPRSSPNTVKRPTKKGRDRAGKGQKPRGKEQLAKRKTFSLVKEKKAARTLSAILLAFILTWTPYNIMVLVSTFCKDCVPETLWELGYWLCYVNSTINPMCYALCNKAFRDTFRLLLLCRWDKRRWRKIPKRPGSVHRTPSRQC
The settings on record: screened as agonist.

A further data set has as its target rM3 (Rattus norvegicus, UniProt P08483). Briefly: CRC screened as antagonist in presence of ACh EC80, rM3. Format: cell-based. The settings on record: antagonist mode.
Another data set deals with T5, rM4 (Rattus norvegicus, UniProt P08485).
T5 sequence (P08485 1-478): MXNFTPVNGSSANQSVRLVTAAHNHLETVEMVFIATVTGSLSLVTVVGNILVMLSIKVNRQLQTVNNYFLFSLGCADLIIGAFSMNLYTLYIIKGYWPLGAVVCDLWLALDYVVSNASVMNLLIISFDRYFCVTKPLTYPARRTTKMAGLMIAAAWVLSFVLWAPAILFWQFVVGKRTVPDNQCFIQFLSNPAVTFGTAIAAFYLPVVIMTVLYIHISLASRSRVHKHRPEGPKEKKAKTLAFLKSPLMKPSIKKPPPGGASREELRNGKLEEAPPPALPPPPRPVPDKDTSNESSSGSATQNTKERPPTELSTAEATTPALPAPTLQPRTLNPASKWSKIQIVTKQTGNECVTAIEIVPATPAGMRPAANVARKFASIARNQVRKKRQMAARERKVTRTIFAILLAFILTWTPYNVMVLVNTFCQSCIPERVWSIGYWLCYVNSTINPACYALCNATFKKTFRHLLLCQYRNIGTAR
The data set is described as follows: CRC screened as antagonist in presence of ACh EC80, rM4. Format: cell-based.

Another data set addresses T6, M1 (Rattus norvegicus, UniProt P08482).
T6 sequence (P08482 1-460): T4 sequence (P11229 1-460) with A5V, T254S, P309S, R320K, A337G, I413V
Briefly: M1 agonist screen. Format: cell-based. The settings on record: for M1 activation when screened as an agonist: agonist mode.

The conditions of data set [1]: cited from earlier work.
The target in the next data set is T7, Rat M1 (Rattus norvegicus, UniProt P08482).
T7 sequence (P08482 1-460): T4 sequence (P11229 1-460) with A5V, T254S, P309S, R320K, A337G, I413V
Briefly: CRC screened as antagonist in presence of ACh EC80, Rat M1. The settings on record: antagonist mode. The format is cell-based.

The next data set addresses T8, M5 (Homo sapiens, UniProt P08912).
T8 sequence (P08912 1-532): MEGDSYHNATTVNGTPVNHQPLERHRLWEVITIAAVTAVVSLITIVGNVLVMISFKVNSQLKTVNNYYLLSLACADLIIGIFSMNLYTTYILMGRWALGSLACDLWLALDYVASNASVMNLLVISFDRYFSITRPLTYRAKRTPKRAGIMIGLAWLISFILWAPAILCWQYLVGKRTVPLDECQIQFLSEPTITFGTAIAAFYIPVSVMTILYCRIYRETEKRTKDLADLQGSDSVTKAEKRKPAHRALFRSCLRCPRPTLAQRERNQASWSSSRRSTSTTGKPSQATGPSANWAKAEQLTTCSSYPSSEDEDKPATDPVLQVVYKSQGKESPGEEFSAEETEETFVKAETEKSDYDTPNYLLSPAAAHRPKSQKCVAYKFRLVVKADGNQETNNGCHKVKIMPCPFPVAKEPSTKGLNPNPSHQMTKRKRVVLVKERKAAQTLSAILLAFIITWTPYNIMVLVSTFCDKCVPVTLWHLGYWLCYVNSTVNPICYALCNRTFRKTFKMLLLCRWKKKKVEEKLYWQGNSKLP
The data set is described as follows: M5 antagonist screen. The format is cell-based.

For another data set, the target named is T9, M4 (Homo sapiens, UniProt P08173).
T9 sequence (P08173 1-479): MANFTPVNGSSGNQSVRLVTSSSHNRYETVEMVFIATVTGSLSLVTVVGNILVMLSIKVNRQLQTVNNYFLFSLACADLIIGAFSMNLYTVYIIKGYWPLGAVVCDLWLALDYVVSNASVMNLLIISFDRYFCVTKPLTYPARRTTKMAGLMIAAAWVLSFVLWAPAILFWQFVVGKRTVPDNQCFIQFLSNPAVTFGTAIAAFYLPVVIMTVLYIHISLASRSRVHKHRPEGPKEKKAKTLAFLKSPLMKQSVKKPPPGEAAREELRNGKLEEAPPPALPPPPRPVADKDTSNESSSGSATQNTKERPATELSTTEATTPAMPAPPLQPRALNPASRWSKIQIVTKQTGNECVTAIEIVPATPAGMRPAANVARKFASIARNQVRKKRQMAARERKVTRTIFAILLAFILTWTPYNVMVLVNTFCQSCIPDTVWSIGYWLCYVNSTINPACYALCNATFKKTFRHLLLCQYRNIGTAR
The data set is described as follows: M4 antagonist screen. Format: cell-based.

Sequence of rM3 (P08483 whole entry): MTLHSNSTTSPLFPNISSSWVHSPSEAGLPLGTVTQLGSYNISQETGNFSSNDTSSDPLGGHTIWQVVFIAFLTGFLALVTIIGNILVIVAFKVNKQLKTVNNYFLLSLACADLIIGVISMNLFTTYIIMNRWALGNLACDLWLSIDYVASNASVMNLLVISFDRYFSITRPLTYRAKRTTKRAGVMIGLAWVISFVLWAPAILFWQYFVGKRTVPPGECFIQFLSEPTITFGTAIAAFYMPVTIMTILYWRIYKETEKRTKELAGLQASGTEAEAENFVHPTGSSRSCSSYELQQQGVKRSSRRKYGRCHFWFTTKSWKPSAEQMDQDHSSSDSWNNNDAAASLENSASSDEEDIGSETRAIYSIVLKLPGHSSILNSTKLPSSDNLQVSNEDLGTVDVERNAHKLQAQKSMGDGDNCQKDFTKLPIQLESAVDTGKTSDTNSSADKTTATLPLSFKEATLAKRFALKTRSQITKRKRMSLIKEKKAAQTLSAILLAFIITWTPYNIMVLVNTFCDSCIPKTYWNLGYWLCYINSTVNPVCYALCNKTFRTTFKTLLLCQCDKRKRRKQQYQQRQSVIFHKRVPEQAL

The EC50 is the concentration that produces a half-maximal response. High values mean a need for much substance, low ones an effect from little substance. Take `Cc1ccccc1CN1CCC(N2CCC(n3c(=O)[nH]c4ccccc43)CC2)CC1` [TBPB]: at rM2, the “rM2 pIC50” value was determined as 5.89. Moreover, on rM5, the EC50 was greater than 30 µM. Further, the “hM2 pIC50” value at hM2 amounted to 5.46. The “hM1 % ACh Max” value at hM1 came to 40 % ACh Max. In addition, the “rM3 pIC50” value on rM3 stood at 5.26.
As a reminder, the IC50 is the concentration needed to halve the response being measured. In the case of `Cc1ccccc1CN1CCC(N2CCC(n3c(=O)[nH]c4ccccc43)C(F)C2)CC1` (stereo not shown) [compound 9], at rM4, the 50% inhibitory concentration (IC50) was greater than 10 µM. Moreover, at rM4 (antagonist mode, ACh EC80), the “rM4 % ACh Max” value amounted to 26.6±3.4 % ACh Max and the “rM4 pIC50” value is on record as 5.29±0.09. Also, on M1, the “M1 activation when screened as an agonist” value was “neither 9 nor 10 elicited M1 activation”. For the same compound, in [1], the “pKa of the central piperidine nitrogen atom” value is 9.4.
Turning to `Cc1ccccc1CN1CCC(N2CC3CC(n4c(=O)[nH]c5ccccc54)CC3C2)CC1` (stereo not shown) [compound 10], the “M1 activation when screened as an agonist” value on M1 is given as “neither 9 nor 10 elicited M1 activation”. Besides, on Rat M1, the “Rat M1 % ACh Max” value was −1.07±1.3 % ACh Max and the “Rat M1 pIC50” value is listed as 5.20±0.04.
With `CCOC(=O)N1CCC(N2CCC[C@@H](NC(=O)c3cccc(Br)c3)C2)CC1` [compound 14], the “M1 pEC50” value on M1 is listed as 5.69±0.08.
For `CCOC(=O)N1CCC(N2CCC[C@@H](NC(=O)c3ccc(C(F)(F)F)nc3)C2)CC1` [compound 16], the IC50 against M5 and on M4 was greater than 10 µM each time.
